# Measured values taken from US20260240644A1, “BIOPOLYMER-BASED TYMPANOSTOMY TUBES WITH PROGRAMMABLE, TUNABLE, AND ON-DEMAND DEGRADATION” (Trustees of Tufts College, priority 2023, published 2026).
# Tested on: Xen29, a Staphylococcus aureus strain
# Assay: Kirby Bauer disc diffusion assay of Ciprodex-loaded chitosan
# Assay type: cell-based
# Details: loaded in chitosan; growth inhibition of Xen29
# Excerpt: FIG. 27 depicts results of the Kirby Bauer disc diffusion assay.
# To estimate the concentration of ciprofloxacin released by the chitosan, a standard curve was established using blank paper discs and known dilutions of Ciprodex.
compound,measurement,value
"O=C(O)c1cn(C2CC2)c2cc(N3CCNCC3)c(F)cc2c1=O [Ciprofloxacin, ciprofloxacin]",bioactivity of loaded Ciprofloxacin,maintained its bioactivity
